From US10100006B2, “Compound having immune disease treatment effect and use thereof” (THE CATHOLIC UNIVERSITY OF KOREA INDUSTRY—ACADEMIC …, priority 2014, dated 2018)

Tests used:
Total IgG = assay: Autoantibody production, sandwich ELISA: Total IgG; type: cell-based, mouse
IgG1 = assay: Autoantibody production, sandwich ELISA: IgG1; type: cell-based, mouse
IgG2 = assay: Autoantibody production, sandwich ELISA: IgG2; type: cell-based, mouse
IL-17 [1] = assay: Production of inflammatory cytokines, ELISA: IL-17, mouse spleen cells; type: cell-based
IL-17 [2] = assay: Production of inflammatory cytokines, ELISA: IL-17, lymphocytes of human peripheral blood; type: cell-based; details: D: Lymphocytes of human peripheral blood
Description: (§1) Further, in a lupus-developed mouse model, a sanroque mouse used in a lupus model in the art was used and the human P.B group was used by obtaining lymphocytes from the human peripheral blood. The isolation of spleen cells and the isolation of lymphocytes from each mouse and the human peripheral blood were performed by a general method which was widely known in the art and the obtained cells were incubated for 72 h under the anti-CD3 0.5 μg/ml stimulation condition, activated, and then used.
(§2) In order to verify whether the novel compounds of the present invention have an effect on inflammation and the production of inflammatory cytokines as cause substances of the immune diseases, the inventors analyzed the production degree of IL-17, IL-6, TNF-α, IFN-γ, MMP-9, and STAT-3 and the expression degree of mRNA of these cytokines by targeting each test group. The production degree of the inflammatory cytokines was analyzed through an ELISA after obtaining a supernatant by targeting cells which were treated with the compound of the present invention and incubated, and particularly, the cells reacted with cytokine-specific antibodies anti-IL-17, anti-IL-6, anti-TNF-α, anti-IFN-γ, anti-MMP-9, and anti-STAT-3 all night at […] and then non-specific binding was blocked with a blocking solution (1% BSA/PBST). Thereafter, each biotinylated antibody was reacted at room temperature for 2 hrs, washed four times, and then reacted at room temperature for 2 hrs after diluting and adding an extravidin-alkaline phosphatase conjugate. Thereafter, a PNPP/DEA solution was added and colored, and then the absorbance was measured at a wavelength of 405 nm.

IL-6 = assay: Production of inflammatory cytokines, ELISA: IL-6, mouse spleen cells; type: cell-based
TNF-a [3] = assay: Production of inflammatory cytokines, ELISA: TNF-a, mouse spleen cells; type: cell-based
IFN-r [4] = assay: Production of inflammatory cytokines, ELISA: IFN-r, mouse spleen cells; type: cell-based
IFN-r [5] = assay: Production of inflammatory cytokines, ELISA: IFN-r, lymphocytes of human peripheral blood; type: cell-based; details: D: Lymphocytes of human peripheral blood
Description: as §1, §2

TNF-a [6] = assay: Inflammatory gene expression, RT-PCR: TNF-a; type: cell-based, mouse; details: control = 1
MMP-9 = assay: Inflammatory gene expression, RT-PCR: MMP-9; type: cell-based, mouse; details: control = 1
STAT3 = assay: Inflammatory gene expression, RT-PCR: STAT3; type: cell-based; details: A: Normal mouse cells; control = 1
Th17 cells = assay: Inhibition of Th17 cells, flow cytometry; type: cell-based, mouse
Treg cells = assay: Treg cell-induced activity, flow cytometry; type: cell-based, mouse; details: TCR condition
osteoclasts = assay: Inhibition of differentiation of osteoclasts, TRAP staining; type: cell-based, mouse; details: M-CSF and RANKL
[7] = tested on: cells in each test group disclosed in Table 3; assay: Cytotoxicity analysis (MTT assay); type: cell-based, mouse; human; details: treatment for each concentration, 72 hrs; normal cells and disease-group cells; compared with control or metformin-treated group
Description: In order to verify whether the compounds synthesized in the present invention causes the cytotoxicity in the cells, an MTT assay was performed, target cells were divided to be the number of 2×10^5 cells per well on a 96 well plate, treated with the compounds of the present invention for each concentration, incubated for 72 hrs, added with an MTT solution (0.5% 3-4,5-dimethyl thiazol-2-yl)-2,5-diphenyl-2H-tetrazolium bromide), and incubated for 4 hrs again. Thereafter, absorbance at 540 nm was measured by an enzymelinked immunospecific assay (ELISA) meter to observe the cytotoxicity.
In order to verify whether the novel compounds synthesized in Example 1 have the cytotoxicity, a cell survival rate was verified through the MTT assay by targeting cells in each test group disclosed in Table 3 above. That is, the cells of each test group were divided according to the number of 2×10^5 cells per well and treated with the novel synthesized compounds of the present invention for each concentration, and the cell survival rate was analyzed.

CCN(C(=N)NC(=N)N)c1ccc(F)cc1F [SD-283, N-(2,4-Difluorophenyl)-N-ethylbiguanide]
Total IgG (Total IgG; A: Normal mouse cells): 2.9 ng/mL | Total IgG (Total IgG; B: Rheumatoid arthritis cells): 49.6 ng/mL | Total IgG (Total IgG; C: Lupus cells): 113.5 ng/mL | IgG1 (IgG1; A: Normal mouse cells): 41 ng/mL | IgG1 (IgG1; B: Rheumatoid arthritis cells): 135.3 ng/mL | IgG1 (IgG1; C: Lupus cells): 296.5 ng/mL | IgG2 (IgG2; A: Normal mouse cells): 97.6 ng/mL | IgG2 (IgG2; B: Rheumatoid arthritis cells): 99.4 ng/mL | IgG2 (IgG2; C: Lupus cells): 76 ng/mL | IL-17 production (IL-17 [1]; A: Normal mouse cells): 1.6 ng/mL | IL-17 production (IL-17 [1]; B: Rheumatoid arthritis cells): 2.2 ng/mL | IL-17 production (IL-17 [1]; C: Lupus cells): 0.4 ng/mL | IL-17 production (IL-17 [2]): 0.1 ng/mL | IL-6 production (IL-6; A: Normal mouse cells): 1.4 ng/mL | IL-6 production (IL-6; B: Rheumatoid arthritis cells): 1.1 ng/mL | IL-6 production (IL-6; C: Lupus cells): 0.9 ng/mL | TNF-a production (TNF-a [3]; A: Normal mouse cells): 0.5 ng/mL | TNF-a production (TNF-a [3]; B: Rheumatoid arthritis cells): 0.3 ng/mL | TNF-a production (TNF-a [3]; C: Lupus cells): 0.6 ng/mL | IFN-r production (IFN-r [4]; A: Normal mouse cells): 7.2 ng/mL | IFN-r production (IFN-r [4]; B: Rheumatoid arthritis cells): 5.4 ng/mL | IFN-r production (IFN-r [4]; C: Lupus cells): 5.5 ng/mL | IFN-r production (IFN-r [5]): 0.1 ng/mL | TNF-a gene expression (TNF-a [6]; A: Normal mouse cells): 0.4 gene expression | TNF-a gene expression (TNF-a [6]; B: Rheumatoid arthritis cells): 0.06 gene expression | TNF-a gene expression (TNF-a [6]; C: Lupus cells): 0.1 gene expression | MMP-9 gene expression (MMP-9; A: Normal mouse cells): 0.3 gene expression | MMP-9 gene expression (MMP-9; B: Rheumatoid arthritis cells): 1 gene expression | MMP-9 gene expression (MMP-9; C: Lupus cells): 0.04 gene expression | STAT3 gene expression (STAT3): 1.3 gene expression | Th17 (Th17 cells; TCR condition, A: Normal mouse cells): 1.1 | Th17 (Th17 cells; TCR condition, B: Rheumatoid arthritis cells): 2.3 | Th17 (Th17 cells; TCR condition, C: Lupus cells): 0.5 | Th17 (Th17 cells; Th17 condition (Th17 differentiation condition), A: Normal mouse cells): 0.9 | Treg (Treg cells; A: Normal mouse cells): 3 | Treg (Treg cells; B: Rheumatoid arthritis cells): 5.1 | Treg (Treg cells; C: Lupus cells): 3.3 | TRAP + Cell (osteoclasts; A: Normal mouse cells): 123 | TRAP + Cell (osteoclasts; B: Rheumatoid arthritis cells): 85 | cytotoxicity (cell survival rate, MTT) [7]: cytotoxicity was not observed
